Assay results taken from patent publication US20110268789A1, “USE OF PITUITARY ADENYLATE CYCLASE-ACTIVATING POLYPEPTIDE (PACAP) AND PACAP ANALOGS AS ADJUNCTIVE TREATMENTS WITH ANTICANCER AGENTS” (priority 2008, published 2011).

How the values were obtained:
[1] = system: Jurkat human T-lymphocyte leukemia cells; assay: Etoposide-induced apoptotic cell death of leukemia cells; assay type: cell-based
Method: The Jurkat human T-lymphocyte leukemia cells were cultured in RPMI 1640 medium supplemented with 10% non-inactivated fetal bovine serum. The effects of PACAP27 and PACAP38 on apoptotic cell death was assessed by the quantitative determination of cytoplasmic histone-associated DNA-fragmentation (mono- and oligonucleosomes) after exposure to etoposide for 48 hours. Each value represents the mean plus/minus the standard deviation of three determinations. **p<0.01 and *p<0.05 compared to the etoposide-treated (control) cells.

HK-2 human kidney cells [2] = assay: Cisplatin-induced apoptotic cell death of human renal proximal tubule epithelial cells (histone-associated DNA fragmentation); assay type: cell-based; settings: HK-2 cells
Method: (§1) The HK-2 human kidney cells were cultured in Keratinocyte-Serum Free Medium supplemented with recombinant epidermal growth factor and bovine pituitary extract. The dose-dependent inhibitory effect of PACAP38 on apoptotic cell death was assessed by the quantitative determination of cytoplasmic histone-associated DNA-fragmentation (mono- and oligonucleosomes) after exposure to cisplatin for 24 hours. Each value represents the mean plus/minus the standard error of four determinations in three replicate experiments. **p<0.01 compared to the cisplatin-treated (control) cells.
as §1, with “deviation” for “error”, “different” for “replicate”, “**p<0.01 and *p<0.05” for “**p<0.01”

Male C57BL/6 mice = assay: Cisplatin-induced nephrotoxicity in mice; assay type: in vivo, mouse; settings: cisplatin 20 mg/kg i.p.
Method: (§2) Male C57BL/6 mice were given a single intraperitoneal injection of 20 mg/kg of cisplatin. Twenty nanomoles of PACAP38 were given intraperitoneally 1 hour before the injection of cisplatin and additional doses were given at 24 and 48 hours after the initial dose. The control group of mice was injected intraperitoneally with the same volume of saline as for the injections of cisplatin and PACAP38 on the same schedule. The mice were euthanized 24 hours after the final injection of PACAP38. Each value represents the mean plus/minus the standard error of four determinations. ***p<0.001 and **p<0.01 compared to the group treated only with cisplatin.
as §2, with “PACAP38. TNF-α was extracted from one kidney of each mouse and quantified with an enzyme-linked immunosorbent assay.” for “PACAP38.”
Male C57BL/6 mice were given a single intraperitoneal injection of 20 mg/kg of cisplatin. Twenty nanomoles of PACAP38 were given intraperitoneally 1 hour before the injection of cisplatin and additional doses were given at 24 and 48 hours after the initial dose. The control group of mice were injected intraperitoneally with the same volume of saline as for the injections of cisplatin and PACAP38 on the same schedule. The mice were euthanized 24 hours after the final injection of PACAP38, and the kidneys were removed and fixed in 10% formalin. The fixed sections were stained with hematoxylin and eosin. The sections of the kidneys from control mice show intact renal tubular epithelial cells and well-preserved brush border membranes. The kidneys from mice treated with cisplatin had extensive tubular damage, tubular dilations, intratubular debris, and intratubular casts. […] Tubular damage was more pronounced in the outer cortex in the cisplatin treated mice. The photomicrographs on the left side were made at a lower magnification (×160) than the photomicrographs on the right side (×320). The results described in FIGS. 5, 6, 7, and 8 were from the same experiment.
as §2, with “six” for “four”
as §2, with “The cytoprotective effect of PACAP38 against cisplatin-induced nephrotoxicity was also seen in a common in vivo model. Male” for “Male”, “PACAP38.” for “PACAP38. Each value represents the mean plus/minus the standard error of four determinations. ***p<0.001 and **p<0.01 compared to the group treated only with cisplatin.”

HK-2 human kidney cells [3] = assay: Cell-based adhesion assay: binding of cisplatin-treated renal cells to extracellular matrix components; settings: HK-2 cells, 50 μM cisplatin, FIG. 5
Description: The wells of a 96-well plate were coated with […] fibronectin, collagen I or collagen IV. […] PACAP38 partially reversed the decrease in binding to fibronectin and collagen IV in the cells exposed to cisplatin. Each value represents the mean plus/minus the standard error of four determinations. **p<0.01 compared to the corresponding cisplatin-treated (control) cells.

[4] = system: MCF-7 human breast cancer cells; assay: Doxorubicin-induced apoptotic cell death of breast cancer cells; assay type: cell-based; settings: MCF-7 cells, doxorubicin 48 hours, FIG. 14
Method: The MCF-7 human breast cancer cells were cultured in Eagle's Minimum Essential Medium supplemented with 10% non-inactivated fetal bovine serum and 0.05 mM 2-mercaptoethanol. The effects of PACAP38 and N-acetyl[Ala^16,17,D-Lys^38]PACAP38 on apoptotic cell death were assessed by the quantitative determination of cytoplasmic histone-associated DNA-fragmentation (mono- and oligonucleosomes) after exposure to doxorubicin for 48 hours. Each value represents the mean plus/minus the standard deviation of three determinations. **p<0.01 compared to the doxorubicin-treated (control) cells.
At the highest dose tested (10^−6 M), both peptides reduced the apoptotic cell death of these breast cancer cells by more than 50%.

## PACAP38
[1]; Jurkat cells, etoposide 48 hours, FIG. 15
  reduction in etoposide-induced apoptotic cell death: small reduction
[1]; Jurkat cells, highest dose tested 10^−6 M
  significance of the reduction of etoposide-induced apoptotic cell death: only significant at the highest dose
[1]; versus cisplatin (FIG. 3), doxorubicin (FIG. 11), bleomycin (FIG. 12)
  potency as cytoprotectant of kidney and lung epithelial cells relative to protection of T-lymphocyte leukemia cells against etoposide: about 100 fold
HK-2 human kidney cells [2]; cisplatin 24 hours, peptide added to the medium, FIG. 3
  reduction in cisplatin-induced apoptotic cell death: significant dose-dependent reduction
HK-2 human kidney cells [2]; comparable concentrations, FIG. 4
  relative effectiveness as protectants against cisplatin-induced apoptotic cell death: similarly effective
HK-2 human kidney cells [2]; highest dose tested
  prevention of apoptotic cell death caused by cisplatin: almost completely prevented
Male C57BL/6 mice; 20 nanomoles peptide i.p. 1 h before and at 24 and 48 h, ELISA, FIG. 8
  increase in TNF-α in the kidney: significantly reduced
Male C57BL/6 mice; 20 nanomoles peptide i.p. 1 h before and at 24 and 48 h, FIG. 6
  increase in serum creatinine: significantly reduced
Male C57BL/6 mice; 20 nanomoles peptide i.p. 1 h before and at 24 and 48 h, FIG. 7
  increase in blood urea nitrogen: significantly reduced
Male C57BL/6 mice; 20 nanomoles peptide i.p. 1 h before and at 24 and 48 h, FIG. 9
  morphology of the kidney (hematoxylin and eosin): relatively well preserved tubular morphology
Male C57BL/6 mice; FIG. 10
  relative potency as cytoprotectants against cisplatin-induced impairment of kidney function (serum creatinine): approximately equipotent
HK-2 human kidney cells [3]
  reversal of inhibitory effect of cisplatin on binding to fibronectin-based or collagen IV-based matrix: significantly reversed
[4]
  reduction in doxorubicin-induced apoptotic cell death: dose-dependent reduction
